≈ marks a conversion by molar mass, not a printed value.
How the values were obtained:
[1] = system: VRSA strain VRS1 persisters; assay: Persister killing assay; format: cell-based, S. aureus; details: linezolid and daptomycin at 100× MIC; bithionol at indicated concentrations (FIG. 1E)
Experimental: (§1) Persister killing assay. […] Persister cells of MRSA MW2 or VRSA VRS1 were prepared by growing cultures overnight to stationary phase at 37° C. at 200 rpm and washing three times with PBS. 1 mL of ˜1×10^8 CFU/mL MRSA persisters was added to 1 mL of PBS containing a 2-fold higher concentration of the desired concentration of antibiotics in a 96-well assay block (Corning Costar 3960). For assays with daptomycin, PBS was supplemented with 50 μg/mL CaCl2. The assay block was incubated at 37° C. with shaking at 200 rpm. At various times, 400 μl samples were removed, washed once with PBS, serially diluted and spot-plated on TSA plates. Colonies were counted after overnight incubation at 37° C. to determine the titer of live cells. These experiments were conducted in triplicate.

[2] = system: stationary-phase MRSA MW2 persisters; assay: Persister killing assay; format: cell-based, S. aureus; details: for response of MRSA persisters to conventional antibiotics: 100× MIC; for killing / viability of MRSA persisters: in words, 4 h treatment (FIGS. 5, 13, 14, 4B)
Experimental: as §1

MRSA MW2 [3] = assay: Antimicrobial activity (MIC) of bithionol analogs; format: cell-based, S. aureus; details: for antimicrobial activity compared with bithionol: in words (FIGS. 5, 13, 14)
Experimental: (§2) Minimal inhibitory concentration (MIC) assay. The MICs of antibiotics were determined by the standard micro-dilution method recommended by the Clinical and Laboratory Standards Institute. MIC assays were conducted in biological triplicate.

MRSA MW2 cells = assay: Bacterial membrane permeability assay (SYTOX Green); format: cell-based, S. aureus; details: for membrane activity compared with bithionol: in words (FIGS. 5, 13, 14); for SYTOX Green membrane permeabilization: MRSA MW2 exponential-phase cells and/or persisters, in words
Experimental: Bacterial membrane permeability assay. Exponential-phase or stationary-phase S. aureus MW2 cells prepared as described above under Killing kinetics assay and Persister killing assay, respectively, were washed 3 times with the same volume of PBS. The washed cells were adjusted to OD600=0.4 with PBS. SYTOX Green (Molecular Probes, Waltham, Mass., USA) was added to 10 mL of the diluted bacterial suspension to a final concentration of 5 μM and incubated for 30 min at room temperature in the dark. 50 μl of the bacterial/SYTOX Green suspension was mixed with 50 μl of phosphate buffered saline (PBS) containing twice the desired concentrations of compounds in black, clear-bottom, 96-well plates (Corning no. 3904). Fluorescence was measured at room temperature using a spectrophotometer (SpectraMax M2, Molecular Devices) with excitation and emission wavelengths of 485 nm and 525 nm, respectively. All experiments were conducted in biological triplicate.

[4] = system: MRSA strain MW2 persisters; assay: Deep-seated mouse thigh infection model, bacterial load; format: in vivo; details: 30 mg/kg each agent, every 12 h for 3 days from 24 h post-infection
Experimental: Deep-seated mouse thigh infection model. […] Mice were euthanized at 96 h post-infection. […] Thighs were homogenized in PBS, serially diluted with PBS, and spot-plated on TSA plates.

18 S. aureus strains = assay: MIC assay, S. aureus strains of the panel; format: cell-based; details: Staphylococcus aureus; range over the 18 S. aureus strains of the panel (FIG. 6)
Experimental: Bacterial strains and growth conditions. S. aureus strains were grown in tryptic soy broth (TSB) (BD, Franklin Lakes, N.J., USA). E. faecium and E. faecalis strains were grown in brain-heart infusion (BHI) broth (BD, Franklin Lakes, N.J., USA), and four Gram-negative species, Klebsiella pneumoniae, Acinetobacter baumannii, Pseudomonas aeruginosa, and Enterobacter aerogenes were grown in Luria Bertani (LB) broth (BD, Franklin Lakes, N.J., USA). All bacteria were grown at 37° C. at 200 r.p.m.
as §2

MRSA BF1 = assay: MIC assay (micro-dilution); format: cell-based, S. aureus; details: Staphylococcus aureus
Experimental: as §2
(§3) Antimicrobial activity of each analog was tested against four MRSA strains (MW2, BF1, BF2, and BF3), Pseudomonas aeruginosa (PA14), Klebsiella pneumonia (WGLW2), and Acinetobacter baumannii (ATCC 17978).

MRSA BF2 = assay: MIC assay (micro-dilution); format: cell-based, S. aureus; details: Staphylococcus aureus
Experimental: as §2, §3

MRSA BF3 = assay: MIC assay (micro-dilution); format: cell-based, S. aureus; details: Staphylococcus aureus
Experimental: as §2, §3

MRSA MW2 [5] = assay: MIC assay (micro-dilution); format: cell-based, S. aureus; details: Staphylococcus aureus
Experimental: as §2, §3

K. pneumoniae WGLW2 = assay: MIC assay (micro-dilution); format: cell-based, Klebsiella pneumonia; details: Klebsiella pneumoniae
Experimental: as §2, §3

A. baumannii ATCC 17978 = assay: MIC assay (micro-dilution); format: cell-based; details: Acinetobacter baumannii, ATCC17978
Experimental: as §2, §3

P. aeruginosa PA14 = assay: MIC assay (micro-dilution); format: cell-based; details: Pseudomonas aeruginosa
Experimental: as §2, §3

S. aureus MW2 = assay: Membrane fluidity assay (Laurdan GP); format: cell-based; details: 32 μg/mL (FIG. 4), in words
Experimental: Membrane fluidity assay. Bacterial membrane fluidity was estimated by slightly modifying previously described methods. An overnight culture of S. aureus MW2 was diluted 1:1,000 in 25 mL TSB. The diluted culture was grown to OD600˜1.5 at 37° C. with shaking at 200 rpm, followed by 10 min incubation with 10 μM Laurdan at room temperature in the dark (Sigma-Aldrich, Cat # 40227). The stained cell culture was washed with PBS 4 times and concentrated 2 times. 100 μL of the 2-fold concentrated culture was mixed with 100 μL of phosphate buffered saline (PBS) containing twice the desired concentrations of compounds in black, clear-bottom, 96-well plates (Corning no. 3904). After 1 h incubation at room temperature in the dark, the Laurdan fluorescence intensities were measured using a spectrophotometer (SpectraMax M2, Molecular Devices) with emission wavelengths of 435 nm and 490 nm upon excitation at 350 nm. The Laurdan GP was calculated using the formula GP=(I435−I490)/(I435+I490). All experiments were conducted in biological triplicate.

Row | Compound | antimicrobial activity compared with bithionol (MRSA MW2 [3]) | membrane activity compared with bithionol (MRSA MW2 cells) | melting point | killing / viability of MRSA persisters [2] | SYTOX Green membrane permeabilization (MRSA MW2 cells) | also measured
1 | CC(=O)NC[C@H]1CN(c2ccc(N3CCOCC3)c(F)c2)C(=O)O1 [linezolid] | – | – | – | – | – | activity against VRSA VRS1 persisters [1]: no; response of MRSA persisters to conventional antibiotics [2]: high level of tolerance
2 | Oc1c(Br)cc(Br)cc1Sc1cc(Br)cc(Br)c1O [BT-opBr, 6, 6′-thio-bis-(2,4-dibromophenol)] | similar | similar | 164 to 166 °C | – | – | –
3 | gentamicin | – | – | – | – | – | effect on MRSA CFUs in the mouse thigh [4]: did not significantly reduce
4 | CCCCCCCCCC(=O)N[C@@H](Cc1c[nH]c2ccccc12)C(=O)N[C@H](CC(N)=O)C(=O)N[C@@H](CC(=O)O)C(=O)N[C@@H]1C(=O)NCC(=O)N[C@@H](CCCN)C(=O)N[C@@H](CC(=O)O)C(=O)N[C@H](C)C(=O)N[C@@H](CC(=O)O)C(=O)NCC(=O)N[C@H](CO)C(=O)N[C@@H]([C@H](C)CC(=O)O)C(=O)N[C@@H](CC(=O)c2ccccc2N)C(=O)O[C@@H]1C [daptomycin] | – | – | – | does not kill MRSA persisters | does not induce rapid SYTOX Green membrane permeabilization | MIC (18 S. aureus strains): 0.5 to 8 µg/mL (≈ 0.309 to 4.94 µM); activity against VRSA VRS1 persisters [1]: nominal activity; response of MRSA persisters to conventional antibiotics [2]: high level of tolerance
5 | NCCOc1c(Cl)cc(Cl)cc1Sc1cc(Cl)cc(Cl)c1OCCN [Compound 1] | – | – | – | – | – | MIC (MRSA BF1): 64 µg/mL (≈ 145 µM); MIC (MRSA BF2): 64 µg/mL (≈ 145 µM); MIC (MRSA BF3): 32 µg/mL (≈ 72.4 µM); MIC (MRSA MW2 [5]): 64 µg/mL (≈ 145 µM); MIC (K. pneumoniae WGLW2): 64 µg/mL (≈ 145 µM); MIC (A. baumannii ATCC 17978): 64 µg/mL (≈ 145 µM); MIC (P. aeruginosa PA14): > 64 µg/mL
6 | Oc1c(Cl)cc(Br)cc1Sc1cc(Br)cc(Cl)c1O [BT-pBr, 6,6′-thio-bis-(4-bromo-2-chlorophenol)] | similar | similar | 200 to 202 °C | – | – | –
7 | Oc1c(Br)cc(Cl)cc1Sc1cc(Cl)cc(Br)c1O [BT-oBr, 6,6′-thio-bis-(2-bromo-4-chlorophenol)] | similar | similar | 178 to 180 °C | – | – | –
8 | Oc1c(F)cc(Cl)cc1Sc1cc(Cl)cc(F)c1O [BT-oF, 6,6′-thio-bis-(4-chloro-2-fluorophenol)] | slightly reduced | slightly reduced | 159 to 161 °C | do not kill them | permeabilize MRSA persister cell membranes | –
9 | [O-][S+](c1cc(Cl)cc(Cl)c1O)c1cc(Cl)cc(Cl)c1O [bitin-S] | decreased antimicrobial activity | reduced membrane activity | – | do not kill them | permeabilize MRSA persister cell membranes | MIC (MRSA MW2 [3]; bithionol analogs (FIGS. 5 and 13), strain not given): 8 µg/mL (≈ 21.5 µM); change in membrane fluidity (Laurdan GP) (S. aureus MW2): do not cause the change in membrane fluidity
10 | Oc1c(Cl)cc(F)cc1Sc1cc(F)cc(Cl)c1O [BT-pF, 6,6′-thio-bis-(2-chloro-4-fluorophenol)] | slightly reduced | slightly reduced | 140 to 142 °C | do not kill them | permeabilize MRSA persister cell membranes | –
11 | CN[C@H](CC(C)C)C(=O)N[C@H]1C(=O)N[C@@H](CC(N)=O)C(=O)N[C@H]2C(=O)N[C@H]3C(=O)N[C@H](C(=O)N[C@H](C(=O)O)c4cc(O)cc(O)c4-c4cc3ccc4O)[C@H](O)c3ccc(c(Cl)c3)Oc3cc2cc(c3O[C@@H]2O[C@H](CO)[C@@H](O)[C@H](O)[C@H]2O[C@H]2C[C@](C)(N)[C@H](O)[C@H](C)O2)Oc2ccc(cc2Cl)[C@H]1O [vancomycin] | – | – | – | – | – | effect on MRSA CFUs in the mouse thigh [4]: did not significantly reduce
12 | COc1c(Cl)cc(Cl)cc1Sc1cc(Cl)cc(Cl)c1OC [BT-OMe, bis-(3,5-Dichloro-2-methoxyphenyl)-sulfane] | complete nullification | complete nullification | – | – | – | –
13 | Oc1c(F)cc(F)cc1Sc1cc(F)cc(F)c1O [BT-opF, 6,6′-thio-bis-(2,4-difluorophenol)] | slightly reduced | slightly reduced | 127 to 130 °C | – | – | –
